Experimental data from patent publication US20030100772A1, “Oxygen-containing heterocyclic compounds” (priority 2000, published 2003).

How the values were obtained:
[1] = biological target: T1, recombinant human PDE IV enzyme (HSPDE4A4B) (Homo sapiens, UniProt P27815); assay: Inhibition test on recombinant human PDE IV enzyme; assay type: biochemical; conditions: [3H]cAMP 1 μmol/L substrate, read-out: enzyme inhibitory activity
T1 construct: made in house; host or cells: Sf9 insect cells
Protocol: Inhibition Test on Recombinant Human PDE IV Enzyme
Human phosphodiesterase cDNA (HSPDE4A4B) was isolated from HL-60 cells. The expected amino acid sequence is the same as that (HSPDE4A5) reported by G. Bolger et al. [Mol. Cell Biol. 13, p. 6558 (1993)]. This recombinant protein was expressed in Sf9 insect cells. The PDE activity was determined by the following two step process according to the method by R. L. Kincaid and V. C. Manganiello [Method. Enzymol., 159, pp. 457-470 (1988)]. Using [^3H]cAMP (final concentration: 1 μmol/L) as a substrate, the reaction was conducted in a standard mixture containing N,N-bis(2-hydroxyethyl)-2-aminoethanesulfonic acid (50 mmol/L, pH 7.2), MgCl2 (1 mmol/L) and soybean trypsin inhibitor (0.1 mg/mL). The reaction was started by addition of the enzyme, and the incubation was conducted at 30° C. for 10 to 30 minutes. The reaction was terminated with hydrochloric acid, and the formed 5′-AMP was completely decomposed with […]. After chromatography with DEAE-Sephadex A-25, the eluted [^3H]-adenosine was counted by a scintillation counter. The test compounds were added after dissolved in DMSO (concentration: 1.7%).

T1 sequence (P27815 whole entry): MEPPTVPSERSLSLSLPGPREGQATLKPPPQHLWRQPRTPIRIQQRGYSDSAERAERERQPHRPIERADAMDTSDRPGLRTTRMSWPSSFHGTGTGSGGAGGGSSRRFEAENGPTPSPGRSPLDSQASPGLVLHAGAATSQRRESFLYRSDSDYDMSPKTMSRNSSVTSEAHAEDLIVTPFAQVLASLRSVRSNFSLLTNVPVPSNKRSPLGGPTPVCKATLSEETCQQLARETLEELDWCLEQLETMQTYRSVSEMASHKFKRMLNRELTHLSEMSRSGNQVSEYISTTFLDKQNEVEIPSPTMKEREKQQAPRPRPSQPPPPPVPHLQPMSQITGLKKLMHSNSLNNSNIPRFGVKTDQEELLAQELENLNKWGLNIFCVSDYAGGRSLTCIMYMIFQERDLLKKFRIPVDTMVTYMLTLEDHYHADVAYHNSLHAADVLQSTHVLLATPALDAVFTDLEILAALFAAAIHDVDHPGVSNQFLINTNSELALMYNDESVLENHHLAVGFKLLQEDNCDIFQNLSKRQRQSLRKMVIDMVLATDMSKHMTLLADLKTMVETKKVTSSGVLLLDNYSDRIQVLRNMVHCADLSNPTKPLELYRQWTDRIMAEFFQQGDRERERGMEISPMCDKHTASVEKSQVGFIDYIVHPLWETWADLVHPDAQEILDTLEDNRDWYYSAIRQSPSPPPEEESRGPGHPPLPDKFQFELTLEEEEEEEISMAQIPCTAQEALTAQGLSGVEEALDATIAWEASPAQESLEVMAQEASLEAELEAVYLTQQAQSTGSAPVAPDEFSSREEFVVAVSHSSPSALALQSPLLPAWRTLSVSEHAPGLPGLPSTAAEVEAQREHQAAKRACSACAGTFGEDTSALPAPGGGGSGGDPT

| melting point | inhibition at 10 µM ([1]; drug concentration of 10 μmol/L) | inhibition at 1 µM ([1]; concentration of 1 μmol/L) | Structure (SMILES) |
| --- | --- | --- | --- |
| 243 to 244 °C | – | – | COc1ccc(C2(C3CCCCC3=O)CCC(C(=O)O)CC2)c2c1OCCO2 (single isomer, unassigned) [Compound 9a, 4-(Cyclohexanon-2-yl)-4-(8-methoxy-1,4-benzodioxan-5-yl)-cyclohexanecarboxylic Acid] |
| 222 to 223 °C | – | – | COc1ccc(C2(C3CCCCC3=O)CCC(C(=O)O)CC2)c2c1OCCO2 (single isomer, unassigned) [Compound 9b, 4-(Cyclohexanon-2-yl)-4-(8-methoxy-1,4-benzodioxan-5-yl)-cyclohexanecarboxylic Acid] |
| 241 to 243 °C | ≥ 30% | – | COc1ccc(C2(C3CCCC3=O)CCC(C(=O)O)CC2)c2c1OCCO2 (centres unmarked) [Compound 8, 4-(Cyclopentanon-2-yl)-4-(8-methoxy-1,4-benzodioxan-5-yl)-cyclohexanecarboxylic Acid] |
| – | – | ≥ 99% | CCOC(=O)C=CC1(c2ccc(OC)c3c2OCCO3)CCC(=O)CC1 [Compound 13, Ethyl 3-[1-(8-methoxy-1,4-benzodioxan-5-yl)-4-oxocyclohexyl]acrylate] |
